Patent US20080260716A1, “Method and Composition for High Level Disinfection Employing Quaternary Ammonium Compounds” (priority 2004, published 2008)
Read-outs that look alike come from different tables or passages of the source.

Assays:
[1] = test system: Mycobacterium terrae, B. subtilis, C. sporogens; design: key: satisfies the FDA requirement for high level disinfection (“HLD”); fails to do so (“F”)
B. subtilis spores = experiment: AOAC sporicidal test, kill time; assay type: cell-based; conditions: 50° C.
C. sporogens spores = experiment: AOAC sporicidal test, kill time; assay type: cell-based; conditions: 50° C.
Mycobacterium terrae = experiment: AOAC tuberculocidal test, kill time; assay type: cell-based; conditions: for Kill Time M. terrae: tests 7.1-7.4, 1% of the quat, 50° C.
Description: These standards are based on the known or possible risk of contamination of a particular medical device by a particular micro-organism, the pathogenic nature of the organism and other principles in infection control. […] The test panels and criteria are different for “low”, “intermediate” or “high-level disinfection”. These terms are herein used in accordance with current Food and Drug Administration (“FDA”) criteria for levels of disinfection which are detailed in Premarket Notification [510(k)] Submissions for Liquid Chemical Sterilants and High Level Disinfectants FDA 1997: “A germicide that inactivates all microbial pathogens except large number of bacterial endospores when used according to labelling”. In brief, the FDA regulatory requirement for high level disinfectants includes as the most challenging test a 100% kill of Mycobacterium tuberculosis var. bovis (or a specific strain of a suitable surrogate, such as Mycobacterium terrae) in 400 p.p.m. hard water in the presence of 2% horse serum in a quantitative tuberculocidal test.
In the following tables unless otherwise specified references to “kill time” mean the time required to achieve complete kill as defined in the relevant AOAC test (more particularly identified in annexure 1). “No kill” means less than 2 log reduction from the initial population. Unless otherwise specified “QUAT” is benzalkonium chloride, specifically Gardiquat NC-50 (Albright & Wilson). Test points for vegetative bacteria (M. terrae) were 2, 5, 10, 20 and 60 mins. Test points for spores were 0.5, 1, 2, 4, 16, 24, 48 hours. The last column in each table indicates whether the tested combination satisfies the FDA requirement for high level disinfection (“HLD”) or fails to do so (“F”).
AOAC tests for determination of High level Disinfection as defined in current FDA criteria (detailed in “Premarket Notification [510(k)] Submissions for Liquid Chemical Sterilants and High Level Disinfectants FDA 1993”.):
AOAC Tuberculocidal Activity of Disinfectants
AOAC Ref No 965.12, AOAC Official Methods of Analysis (1995)

[2] = 30 min, 20° C. (Sporox); cited from earlier work
[3] = tests 7.1-7.4, 1% of the quat, 50° C.

Molecule	HLD or F [1, 3]	Kill Time M. terrae (Mycobacterium terrae)	Kill Time B. subtilis (B. subtilis spores; tests 7.2-7.4, 1% of the quat)	Kill Time C. sporogens (C. sporogens spores; tests 7.2-7.4, 1% of the quat)	further results
CCCCCCCCCC[N+](C)(C)CCCCCCCCCC.[Cl-] [Quat(1), Didecyl Dimethyl Ammonium Chloride]	HLD	<10 min			Kill Time B. subtilis (B. subtilis spores; test 7.1, 1% Quat(1)): <2 h; Kill Time C. sporogens (C. sporogens spores; test 7.1, 1% Quat(1)): <2 h
CCCCCCCC[N+](C)(C)CCCCCCCC.[Cl-] [Quat(2), Dioctyl Dimethyl Ammonium Chloride]	HLD	<10 min	<2 h	<2 h	
CC(C)(C)CC(C)(C)c1ccc(OCCOCC[N+](C)(C)Cc2ccccc2)cc1 [benzethonium chloride, reference compound]					HLD or F ([1]; test 1.3, 0.25% benzethonium chloride, 0.25% Triton X-100, 5% isopropanol, 62° C. + ultrasound 20 min/hr): F; effectiveness against Mycobacterium (Mycobacterium terrae; 0.25%, temperatures above 60° C., with ultrasound): not effective
OO [peroxide, hydrogen peroxide]					minimum effective concentration for high-level disinfection [2]: 6.0%
N-Alkyl Dimethyl Ammonium Chloride [Quat(3)]	HLD	<10 min	<2 h	<2 h	
